US12714728B2, “Methods for the production of cardiac fibroblasts” (FUJIFILM Cellular Dynamics, Inc., priority 2022, dated 2026)

Assays:
[1] = system: iPS cells (WT1+ epicardial cells); experiment: Epicardial (WT1+) progenitor induction from iPS cells, CHIR dose titration / ABC; type: cell-based, human
Method: Cardiac mesoderm cells were then dissociated and contacted with a low concentration of Wnt inhibitor, XAV939, (Table 4) for two days to be specified into a WT1 epicardial lineage (FIG. 3A). The percentage of epicardial cells were measured in single CHIR, ABC, and double CHIR conditions. Epicardial induction with single CHIR or ABC step produced a mixed population of epicardial cells and cardiomyocytes. The percentage of WT1+ epicardial cells ranged from 30% WT1 to 90% WT1. These epicardial progenitors were used directly for cardiac fibroblast induction without additional passaging or purification of epicardial cells. A dose titration of CHIR was performed on iPS cells. […] A dose of 6 μM CHIR on Day 1 generated a population of 60% WT1 epicardial progenitor cells that have characteristic cobblestone morphology by Day 14 (FIG. 3C). […] When Activin and BMP were added with the single CHIR, the epicardial cells retained a flattened cobble stone morphology and dark, round nucleus. Cell-cell borders became less pronounced. There was no need to passage the epicardial cells. […] This was visible by increased cell numbers, decreased cell size, and more elongated morphology.

[2] = system: isogenic tri-culture cardiac microtissues (iPSC-derived cardiomyocytes, endothelial cells, cardiac fibroblasts); experiment: Calcium transient / inotropic response of isogenic tri-culture cardiac microtissues; type: cell-based, human; conditions: for calcium amplitude inotropic response with increased CF content: DIV 14, 10,000 total cells, 20% endothelial cells, varying cardiac fibroblast content
From the text: For the cardiac tri-culture microtissue assay, cryopreserved iPSC-derived cell types were combined in a specific ratio and formed into microtissues in microwell plates (FIG. 5A). Microtissues containing 65% iCell Cardiomyocytes, 20% iCell Endothelial cells, and 15% iPSC derived cardiac fibroblasts are shown in FIG. 5B. After 1-2 days, the microtissues were contracting.
Microtissues were fed a co-culture medium (Table 8) to support all three cell types. […] Microtissues were generated from three donor lines 11713, 01279, and 01434. Microtissues contained either iPSC-derived cardiomyocytes only or were tri-culture, containing isogenic iPSC-derived cardiomyocytes, iPSC-derived endothelial cells, and iPSC-derived cardiac fibroblasts. All microtissues were assayed for response to isoproterenol on Day 14 of culture. […] This response was in tri-culture microtissues from all three donor lines, in two independently produced lots of cardiac fibroblasts from donor 01434, and in microtissues containing cardiac fibroblasts from two independently derived clones from donor 11713 (11713.008 and 11713.847).
Response to dobutamine (DOB), digoxin (DIG), isoproterenol (ISO), and epinephrine (EPI) were assessed at DIV 14 on cardiac tri-culture microtissues comprised of 10,000 total cells and 20% iCell Endothelial Cells and iCell Cardiomyocytes and varying concentrations of iPSC derived cardiac fibroblasts (CF). […] (FIG. 6B).
(§1) Tri-culture microtissues were made from Normal Healthy Control (NHC) and isogenic LMNA-L35P iPSC-derived cell types. Fourteen days post microtissue formation, microtissues were challenged with isoproterenol.

[3] = system: isogenic LMNA-L35P iPSC-derived tri-culture microtissues; experiment: Calcium transient response of LMNA-L35P disease model tri-culture microtissues; type: cell-based, human; conditions: LMNA-L35P disease model microtissue; fourteen days post formation
From the text: as §1

[4] = system: epicardial progenitors from the ABC method; experiment: Cardiac fibroblast differentiation in serum with varying basic FGF, CD29 positive cells; type: cell-based, human; conditions: increasing concentrations of basic FGF, serum-containing medium
Method: Cardiac fibroblasts were induced in serum containing conditions on Day 25. The cells were fed DMEM-Low glucose, 10% FBS, Ascorbic Acid, and 200 ng/mL basic FGF and purified through successive passaging (Table 6). Cardiac fibroblasts were >85% positive for TE-7 and CD29 and quiescent (i.e., less than 5% αSMA) (FIG. 4A).

[5] = system: iPSC derived cardiac fibroblasts; experiment: Activation of iPSC-derived cardiac fibroblasts with TGFβ; type: cell-based, human
Method: The cardiac fibroblasts were thawed and plated on vitronectin-coated plates at 10 k/cm^2 and activated with TGFβ. TGFβ was added at 20 ng/mL or 40 ng/mL to activate cardiac fibroblasts on Day 2, with a media change on Day 4. On Day 5, media supernatants were collected and analyzed for fibronectin secretion by a Human FN ELISA Kit Cat #BMS2028. On Day 3 and Day 5, cardiac fibroblasts were harvested and counted by ViCell-XR. After 5 days cells were collected for flow cytometry.

[6] = system: ROCK1/ROCK2; conditions: competing with ATP; cited from earlier work

Cc1c[nH]c(-c2cnc(NCCNc3ccc(C#N)cn3)nc2-c2ccc(Cl)cc2Cl)n1 [CHIR, CHIR99021]
WT1 epicardial progenitor cells ([1]; 6 μM CHIR on Day 1, single CHIR method): 60%
effect of increasing dose on percentage of WT1+ epicardial cells ([1]; dose on Day 1, single CHIR method, read on Day 9): did not increase the percentage of WT1+ epicardial cells

CNC[C@H](O)c1ccc(O)c(O)c1 [epinephrine]
calcium amplitude inotropic response with increased CF content [2]: increased calcium amplitude inotropic response

C[C@H]1O[C@@H](O[C@H]2[C@@H](O)C[C@H](O[C@H]3[C@@H](O)C[C@H](O[C@H]4CC[C@@]5(C)[C@H](CC[C@@H]6[C@@H]5C[C@@H](O)[C@]5(C)[C@@H](C7=CC(=O)OC7)CC[C@]65O)C4)O[C@@H]3C)O[C@@H]2C)C[C@H](O)[C@@H]1O [digoxin]
calcium amplitude inotropic response with increased CF content [2]: increased calcium amplitude inotropic response

CC(C)NCC(O)c1ccc(O)c(O)c1 (centres unmarked) [isoproterenol]
calcium transient amplitude ([2]; 100 nM isoproterenol, Normal Healthy Control microtissues, fourteen days post microtissue formation): increase in calcium transient amplitude
calcium transient amplitude response to isoproterenol ([2]; Day 14 of culture, three donor lines): increase in calcium transient amplitude
beat rate by calcium transient ([2]; in the presence of isoproterenol): increase in beat rate
response to isoproterenol (calcium transient amplitude) [3]: did not respond

basic FGF: basic fibroblast growth factor used for cardiac fibroblast induction
percentage of CD29 positive cells [4]: increase the percentage of CD29 positive cells

CC(CCc1ccc(O)cc1)NCCc1ccc(O)c(O)c1 (centres unmarked) [dobutamine]
calcium amplitude inotropic response with increased CF content [2]: increased calcium amplitude inotropic response

TGFβ
gene expression by quantitative real-time PCR ([5]; 20 ng/mL TGFβ for 4 days, single CHIR and double CHIR cardiac fibroblasts): increased POSTN, DDR2, COL1A1, COL1A2, GJA1, and ACTA2 expression
alpha smooth muscle actin expressing population (flow cytometry) ([5]; TGFβ 20 ng/mL or 40 ng/mL added Day 2, cells collected after 5 days): alpha smooth muscle actin expressing population was seen to emerge
fibronectin secretion ([5]; cardiac fibroblasts from serum-containing and serum-free induction): increased fibronectin secretion

C[C@@H](N)[C@H]1CC[C@H](C(=O)Nc2ccncc2)CC1 [Y-27632]
IC50 [6]: 800 nM
